Experimental data as given in patent US20240382564A1, “Methods and Compositions for Treating Muscular Dystrophy and Memory Impairment” (Allysta Pharmaceuticals, Inc., priority 2023, published 2024).
Entries after “also recorded” stand apart in the source; their conditions may differ. Where no end group is shown, it is not given here. [ ]: non-standard residue; d: D form. Nva = CCC[C@H](N)C(=O)O

Columns and labels:
Type in all cases: in vivo, mouse
D2.mdx mice [1] = assay: Hippocampal high-resolution respirometry; details: 15 mg/kg daily; 15 μM ADP
Description: Male D2.mdx mice originated from a colony maintained at York University (Toronto, Canada) and sourced from Jackson Laboratories (Stock Number 013141, Bar Harbor, United States). Mice were treated daily from days 7 to 28 of age with ALY688 at 15 mg/kg b.w. (D2.mdx-ALY688) or saline control (D2.mdx-VEH). This age was chosen given it captures an early stage of disease progression in cardiac and skeletal muscle. Mice were sacrificed 20-24 hr after the last dose. Breeding of wildtype mice was unsuccessful. Instead, three-week-old wildtype DBA/2J WT mice (D2A) were obtained from Jackson Laboratories (Stock number 000671, Bar Harbor, United States) and allowed to acclimatize for one week before sacrifice. Mice were housed in standard 12:12-hr light:dark cycles and were allowed access to standard rodent chow and water ad libitum. 4 days prior to sacrifice, all groups underwent novel object recognition acclimatization and testing as described below. Mice were anesthetized under 5% isoflurane vaporized in medical air (21% oxygen) at a flow rate of 2 L/min and then maintained at 2-3% prior to euthanasia by exsanguination. […]
Mitochondrial oxygen consumption (respiration) was measured using the in situ brain permeabilization. […] Polarographic oxygen measurements were acquired in 2 s intervals with the rate of respiration derived from 40 data points and expressed as pmol/s/mg wet weight. […]

D2.mdx mice [2] = assay: Mitochondrial calcium retention capacity; details: between groups
Description: D2.mdx mice were treated with ALY688 at two different dosages; high dose (HD; 15 mg/kg body weight/day) or low dose (LD; 3 mg/kg body weight/day) dissolved in saline. A separate group of mice were treated with saline alone (VEH, vehicle). Treatment was provided via subscapular subcutaneous injections from 7 days of age to 28-30 days. […] At 28-30 days of age, mice were anaesthetized with isoflurane vaporized in medical air (21% oxygen) at a 2 L/min flow rate. Due to tissue limitations in limb muscle, certain measures were performed separately in tibialis anterior and quadriceps across several phases of breeding. […]
This assay was measured spectrofluorometrically (QuantaMaster 80, HORIBA Scientific) in a cuvette with 300 μL assay buffer containing 1 μM Calcium Green-5N (Invitrogen), 2 μM thapsigargin, 5 μM blebbistatin, and 40 μM EGTA while maintained at 37° C. with continuous stirring. 5 mM glutamate, 2 mM malate, 5 mM ADP and 20 mM creatine were added to the assay buffer and minimum fluorescence was recorded. 4 nmol pulses of CaCl2 were added until the mitochondrial permeability transition pore (mPTP) opening was observed as an increase in fluorescence corresponding to net mitochondrial calcium release, at which point saturating pulses of CaCl2 were used to establish maximum fluorescence. […]

D2.mdx mice [3] = assay: Chamber-specific cardiac fibrosis, histopathological assessment
Description: D2.mdx mice were treated daily subcutaneously beginning at 7 days of age for 3 weeks at 1 μL/g with ALY688 at 15 mg/kg body weight (high dose drug; HD) or with a saline (VEH) control. Mice were compared to age-matched wildtypes (DBA/2J). […] However, ADP-stimulated respiration supported by pyruvate was increased in VEH (36%) and HD (46%) vs wildtype whereas HD had no effect vs VEH.

[dN]IP[Nva]LY[dS]FA[dS]-NH2 [ALY688]
hippocampal pyruvate-supported respiration stimulated by ADP (D2.mdx mice [1]): completely preserved; also recorded: complete restoration | mitochondrial calcium retention capacity (D2.mdx mice [2]): no differences between groups | left atrial fibrosis (D2.mdx mice [3]; HD 15 mg/kg s.c. daily for 3 weeks from 7 days of age): completely rescued | right ventricular (RV) fibrosis (D2.mdx mice [3]; HD 15 mg/kg s.c. daily for 3 weeks, VEH +385%): completely rescued
